Source: PMC6511062, “Preclinical candidate for the treatment of visceral leishmaniasis that acts through proteasome inhibition” (Proceedings of the National Academy of Sciences of the …, 2019)
Read-outs that look alike come from different tables or passages of the source.

Key:
[1] = system: L. donovani promastigotes; assay: Morphological analysis by transmission EM; assay type: cell-based, Leishmania donovani; conditions: two times EC50, 6 h
Procedure: Profound morphological changes were evident in parasites treated with compounds from this series. To gain additional insight into these compound-induced changes, L. donovani promastigotes were treated with 7 at a concentration equivalent to two times the established EC50 value for 6 h before analysis by transmission EM. […] In addition, there was a significant accumulation of intracellular vesicles within treated parasites (SI Appendix, Fig. S8). Based on our target identification studies, we reasoned that an inability to recycle key proteins via the proteasome left these parasites overcome by their own waste protein products. […]
95°C for 3 min; 40 cycles of 95°C for 20 s; then 60 °C for 20 s. […] Relative quantification in the tetracycline-induced cell lines were normalized to the un-induced cell line using the […]
Cultures of bloodstream T. brucei and L. donovani promastigotes at starting cell densities of 5 x 105 were incubated with concentrations of compound 7 equivalent to 5x their respective EC50 values. […] After washing, cell densities were adjusted to 5 × 10^5 cells mL, re-suspended in 500 µL of PBS containing 50 µg/mL propidium iodide, 50 µg/mL RNase and 0.1% Triton X-100, incubated at room temperature for 20 min in the dark and analysed using FACSort analytical flow cytometer using Cellquest software (BD Biosciences). j. […]

[2] = system: TA1535
Procedure: (§1) oxidative metabolism system (S9-mix). The maximum concentration tested and […]
(§2) Compound 7a was tested in a bacterial mutation screening assay (Ames test) with Salmonella typhimurium TA1535, TA1537, TA98, TA100 and Escherichia coli WP2uvrA(pKM101) in the presence and absence of an exogenous mammalian […]
(§3) The bacterial mutation screening assay was a plate incorporation test carried out as previously described15 and according to current methodology. […]

[3] = system: TA100
Procedure: as §1, §2, §3

[4] = with S9-mix, dose level 50 per plate
[5] = with S9-mix, dose level 150 per plate
[6] = with S9-mix, dose level 500 per plate
[7] = with S9-mix, dose level 1500 per plate
[8] = with S9-mix, dose level 2500 per plate
[9] = with S9-mix, dose level 5000 per plate
[10] = without S9-mix, dose level 50 per plate
[11] = without S9-mix, dose level 150 per plate
[12] = without S9-mix, dose level 500 per plate
[13] = without S9-mix, dose level 1500 per plate
[14] = without S9-mix, dose level 2500 per plate
[15] = without S9-mix, dose level 5000 per plate

O=C(Nc1ccc(F)c(-c2cn3nc(-c4ccccc4)cnc3n2)c1)N1CCCC1 [Compound 7]
morphological changes (transmission EM) [1]: swelling of promastigotes

O=C(Nc1ccc(F)c(-c2ccn3c(N4CCOCC4)cnc3n2)c1)N1CCCC1 [Compound 8]
Mean revertants per plate [2, 4]: 12.0
Mean revertants per plate [2, 5]: 10.0
Mean revertants per plate [2, 6]: 17.5
Mean revertants per plate [2, 7]: 13.5
Mean revertants per plate [2, 8]: 12.5
Mean revertants per plate [2, 9]: 9.0
Mean revertants per plate [2, 10]: 19.0
Mean revertants per plate [2, 11]: 15.0
Mean revertants per plate [2, 12]: 21.5
Mean revertants per plate [2, 13]: 16.0
Mean revertants per plate [2, 14]: 15.5
Mean revertants per plate [2, 15]: 18.0
Mean revertants per plate [3, 4]: 123.0
Mean revertants per plate [3, 5]: 96.5
Mean revertants per plate [3, 6]: 106.5
Mean revertants per plate [3, 7]: 118.0
Mean revertants per plate [3, 8]: 101.0
Mean revertants per plate [3, 9]: 122.5
Mean revertants per plate [3, 10]: 99.0
Mean revertants per plate [3, 11]: 97.0
Mean revertants per plate [3, 12]: 86.0
Mean revertants per plate [3, 13]: 109.5
Mean revertants per plate [3, 14]: 91.5
Mean revertants per plate [3, 15]: 94.5
